The values that follow come from patent publication US7776882B2, “2-amino-3,4-dihydro-quinoline derivatives useful as inhibitors of β-secretase (BACE)” (priority 2006, dated 2010).

Values joined by “and” are separate entries in the source; they are usually repeats but may differ in a detail not shown here. Identical values can stand only once.

What all share (assay type): biochemical
Assay [1] concerns the target T1, β-secretase (BACE) (Homo sapiens, UniProt P56817).
T1 construct: purchased Panvera
In words: In Vitro BACE % Inhibition Assay, (Aedens)-[…]-(Dabcyl K-amide) substrate (Example 12). Conditions: for % Inhibition 3 μM: 3 μM compound; for % Inhibition 3 μM / % Inhibition 10 μM: values below about 25% (including negative) within noise; for % Inhibition 10 μM: 10 μM compound. How it is done: The following reagents were used in this assay: sodium acetate, PEG8000 (Sigma), DMSO, HEPES, (Aedens)-[…]-(Dabcyl K-amide) substrate, β-secretase (BACE) (Panvera), and 96-well plate (HE microplate, Molecular Devices).
(§1) The following assay buffers were prepared and used in this assay: (1) enzyme assay buffer (0.05 M sodium acetate, pH5, 0.1% PEG8000 (w/v)), (2) substrate assay buffer (0.05 M sodium acetate, pH5), and (3) compound vehicle (30% DMSO in 50 mM HEPES, pH 7.4).
The substrate stock solution was prepared in DMSO as a 10 mg/mL solution. The substrate working solution was prepared by diluting the 10 mg/mL stock solution with substrate assay buffer to a final concentration of 300 μg/mL. The β-secretase (BACE) working solution was prepared by diluting a 0.83 mg/mL BACE stock solution with enzyme assay buffer to a final concentration of 4 μg/mL.
(§2) Test compounds were dissolved in DMSO to 10 mM. Compounds were further diluted in vehicle to various concentrations in the range of 405 μM to 4.05 μM (13.5×final compound concentration in screening plate).
The screening procedure for this assay was as follows: 15 μL of BACE working solution was pipetted into each well of a 96-well plate. To each well was then pipetted 2 μL of test compound at the selected concentration. Test compound and BACE were then mixed with a pipettor and incubated for 20 min at room temperature. To each well was then added 10 μL of the substrate working solution. The plates were then incubated for 1 hour at room temperature. The fluorescence for each well was then measured on an LJL analyst (Ex 360 nm/Em 530 nm).
The procedure for the blank (negative control) was as follows. 15 μL of assay buffer was pipetted into each well to be used as a blank control. To each well was then added 2 μL of vehicle and 10 μL of substrate working solution. The plates were then incubated for 1 hour at room temperature. The fluorescence was measured on an LJL analyst (Ex 360 nm/Em 530 nm).
The procedure for the positive control was as follows: 15 μl of BACE working solution was pipetted into each well to be used as a positive control. To each well was then pipetted 2 μL of vehicle. Vehicle and BACE were then mixed with a pipettor and incubated for 20 min at room temperature. To each well was then added 10 μL of the substrate working solution. The plates were then incubated for 1 hour at room temperature. The fluorescence (Fl) was then measured on an LJL analyst (Ex 360 nm/Em 530 nm).
For test compounds, % inhibition was determined at each concentration as follows:
% Inhibition values of less than 30% were indistinguishable from control and are listed as ≦30% in the Table below.

The target in assay [2] is T1, β-secretase (BACE). In words: In Vitro BACE IC50 Assay, MCA-substrate (Example 13). Conditions: 1 hour at room temperature. From the text:
The following standards are reagents were used in this assay: Sodium Citrate trisodium salt dihydrate (Sigma), Citric Acid monohydrate (Merck), PEG8000 (Sigma), MCA-substrate (Bachem), β-secretase (BACE) (Panvera), 96-well black plate (Costar (Elscolab)), StatVal (Bachem). The standard assay buffer solution prepared and used in this assay is as follows: 0.05 M, pH 5.0 mixture of sodium citrate trisodium salt dihydrate (9.56 g), citric acid monohydrate (3.68 g) and PEG8000 (0.50 g). The MCA-substrate stock solution was prepared by mixing 10 mg MCA-substrate with 5 mL DMSO for a final solution concentration of 2.0 mg/mL. […]
Briefly, the procedure for this BACE IC50 assay was as follows. […] Each well was mixed for a few seconds and the T0 measured with a Fluoroscan Ex320/Em405. The plates were then incubated for 1 hour at room temperature and the T60 measured with the Fluoroscan Ex 320 nm/Em 405 nm.
The procedure for the blank (reference well) was as follows. […] The T0 was measured with the Fluoroscan Ex 320 nm/Em 405 nm, the plate was incubated for 1 hour at room temperature and the T60 was then measured with the Fluoroscan Ex 320 nm/Em 405 nm.
The procedure for the positive control was as follows. […] The T0 was measured with the Fluoroscan Ex 320 nm/Em 405 nm, the plate was incubated for 1 hour at room temperature and the T60 was then measured with the Fluoroscan Ex 320 nm/Em 405 nm. […]

Assay [3] concerns the target T1, β-secretase (BACE). In words: In Vitro BACE Assay, Ki (Example 11). Conditions: Ki (μM) (Example 11), FS1 substrate 50 μM, Km 24 μM. The procedure: The following reagents were used in this assay: sodium acetate, PEG8000 (Sigma), DMSO, HEPES, FS1 substrate [R(AedensE)[…]-(DabcylK)R], β-secretase (BACE) (Panvera), and 96-well plate (HE microplate, Molecular Devices).
as §1
(§3) The FS1-substrate stock solution was prepared in DMSO as a 10 mg/mL solution. The FS1-substrate working solution was prepared by diluting the 10 mg/mL stock solution with substrate assay buffer to a final concentration of 300 μg/mL. The β-secretase (BACE) working solution was prepared by diluting a 0.83 mg/mL BACE stock solution with enzyme assay buffer to a final concentration of 4 μg/mL.
Test compounds were dissolved in DMSO at 10 mM.
The procedure for this assay was as follows: 15 μL of BACE working solution was pipetted into each well of a 96-well plate. To each well was then pipetted 2 μL of test compound at the selected concentration. Test compound and BACE were then mixed with a pipettor and incubated for 20 min at room temperature. To each well was then added 10 μL of the FS1 substrate working solution. The fluorescence for each well was then measured on a Polarstar fluorometer (Ex 390 nm/Em 520 nm) for 20 min at room temperature, reading fluorescence at 1 min intervals.
The procedure for the positive control was as follows: 15 μL of BACE working solution was pipetted into each well to be used as a positive control. To each well was then pipetted 2 μL of vehicle. Vehicle and BACE were then mixed with a pipettor and incubated for 20 min at room temperature. To each well was then added 10 μL of the FS1 substrate working solution. The fluorescence was then measured on a Polarstar fluorometer (Ex 390 nm/Em 520 nm) for 20 min at room temperature, reading fluorescence at 1 min intervals.
For test compounds, Ki inhibition was determined as follows: For each compound concentration and positive control, rate of cleavage of substrate (Vi, where i=compound concentration in μM) was determined as Δ Fluorescence/Δ time (min). Cleavage rates (Vi) were plotted as a function of inhibitor concentration in μM [I]. The Ki was then determined by fitting the following equation to the graph of [I] vs Vi Y=aVmax/(50+24*(1+X/Ki)),

In assay [4] the target is T1, β-secretase (BACE). In words: In Vitro BACE FS1 % Inhibition Assay (Example 10). Conditions: FS1 substrate, values below about 25% (including negative) within noise. The procedure:
as §1, §3, §2
The screening procedure for this assay was as follows: 15 μL of BACE working solution was pipetted into each well of a 96-well plate. To each well was then pipetted 2 μL of test compound at the selected concentration. Test compound and BACE were then mixed with a pipettor and incubated for 20 min at room temperature. To each well was then added 10 μL of the FS1 substrate working solution. The plates were then incubated for 1 hour at room temperature. The fluorescence for each well was then measured on an LJL analyst (Ex 360 nm/Em 530 nm).
The procedure for the blank (negative control) was as follows. 15 μL of assay buffer was pipetted into each well to be used as a blank control. To each well was then added 2 μL of vehicle and 10 μL of FS1-substrate working solution. The plates were then incubated for 1 hour at room temperature. The fluorescence was measured on an LJL analyst (Ex 360 nm/Em 530 nm).
The procedure for the positive control was as follows: 15 μL of BACE working solution was pipetted into each well to be used as a positive control. To each well was then pipetted 2 μL of vehicle. Vehicle and BACE were then mixed with a pipettor and incubated for 20 min at room temperature. To each well was then added 10 μL of the FS1 substrate working solution. The plates were then incubated for 1 hour at room temperature. The fluorescence (Fl) was then measured on an LJL analyst (Ex 360 nm/Em 530 nm).
For test compounds, % inhibition was determined at each concentration as follows: […]

Assay [5] has as its target T2, human BACE-1 (Homo sapiens, UniProt P56817).
T2 construct: purchased CEREP (contract assay) 761-B
Put plainly: In Vitro BACE Assay run by CEREP (Example 14). Conditions: recombinant enzyme, 60 min at 37° C., pH 4.5. The procedure: This assay was run by CEREP (Catalog Ref. 761-B, Referred to SOP No. 1C131; ERMOLIEFF, J., LOY, J. A., KOELSCH, G. and TANG, J., Proteolytic activation of recombinant pro-memapsin 2 (pro-BACE) studied with new fluorogenic substrates, Biochemistry, (2000) Vol. 39, p. 12450).
More specifically the assay, run at 50 μL in a 96 well plate, evaluated the effect of test compound on the activity of the human BACE-1 quantified by measuring the formation of Mca-S-E-V-N-L-NH2 from Mca-S-E-V-N-L-D-A-E-F-R-K(Dnp)-R-R-NH2, using a recombinant enzyme.
The test compound, reference compound or water (control) was added to a buffer containing 0.09 M sodium acetate (pH 4.5) and 0.25 μg BACE-1. Compound interference with the fluorimetric detection method due to autofluorescence was then checked by measurements at the wavelengths defined to evaluate the enzyme activity. Thereafter, the reaction was initiated by adding 7.5 μM of the substrate Mca-S-E-V-N-L-D-A-E-F-R-K(Dnp)-R-R-NH2 and the mixture was incubated for 60 min at 37° C. For control basal measurement, the substrate was omitted from the reaction mixture. Immediately after the incubation, the fluorescence intensity emitted by the reaction product Mca-S-E-V-N-L-NH2 was measured at λex=320 nm and λem=405 nm using a microplate reader (Ultra, Tecan). The standard inhibitory reference compound was OM99-2, which was tested in each experiment at several concentrations to obtain an inhibition curve from which its IC50 value was calculated.

T1 sequence (P56817 46-501): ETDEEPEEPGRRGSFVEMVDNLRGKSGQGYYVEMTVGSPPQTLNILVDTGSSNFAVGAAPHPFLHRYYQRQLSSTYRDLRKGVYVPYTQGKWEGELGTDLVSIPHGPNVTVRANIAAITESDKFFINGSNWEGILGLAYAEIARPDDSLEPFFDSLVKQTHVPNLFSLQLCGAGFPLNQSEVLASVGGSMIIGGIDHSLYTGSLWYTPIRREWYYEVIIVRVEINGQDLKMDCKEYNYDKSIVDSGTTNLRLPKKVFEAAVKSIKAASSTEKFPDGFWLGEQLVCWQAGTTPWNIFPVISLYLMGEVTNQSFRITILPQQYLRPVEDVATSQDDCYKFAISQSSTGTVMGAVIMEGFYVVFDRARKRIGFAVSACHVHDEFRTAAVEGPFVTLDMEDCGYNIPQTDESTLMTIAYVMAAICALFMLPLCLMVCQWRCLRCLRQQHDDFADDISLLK
T2 sequence (P56817 46-501): as above

Consider `CN(C(=O)CCc1cc2cc(Oc3ccccc3)ccc2nc1N)C1CCCCC1` [compound 1], for which, in assay [1], the “% Inhibition 3 μM” value is −8.5% and the “% Inhibition 10 μM” value amounted to 9%.
On to `Nc1nc2ccc(Oc3ccccc3)cc2cc1CCC(=O)O` [compound 502], for which, in assay [1], the “% Inhibition 3 μM” value is on record as −8% and the “% Inhibition 10 μM” value is listed as −16%.
As for `CN(C(=O)CC[C@@H]1Cc2cc(Oc3ccccc3)ccc2N=C1N)C1CCCCC1` [compound 103], the IC50 in assay [2] amounted to 220 nM.
`CN(C(=O)CCC1Cc2cc(Oc3ccccc3)ccc2N=C1N)C1CCCCC1` (stereo not drawn) [compound 101]: the Ki came out at 0.1 µM in assay [3] and 280 nM in assay [1].
Turning to `CC(C)(C)OC(=O)CCc1cc2cc(Oc3ccccc3)ccc2nc1N` [compound 501], in assay [1], the “% Inhibition 3 μM” value was 12% and the “% Inhibition 10 μM” value is −36%.
`CN(C(=O)CC[C@H]1Cc2cc(Oc3ccccc3)ccc2N=C1N)C1CCCCC1` [compound 102]: the IC50 in assay [2] was found to be 170 nM.
As for `CN(C(=O)CCC(c1cc2cc(Oc3ccccc3)ccc2nc1N)C1CCOCC1)C1CCCCC1` (stereo not drawn) [compound 23], the “% Inhibition (Example 10) @ 0.3 μM” value in assay [4] (0.3 μM compound, 0.3 µM) is 34% and 64%. The inhibition at 1 µM was found to be 88% in assay [4] (1 μM compound) and 78% in assay [5] (1 μM compound). Besides, the “% Inhibition (Example 10) @ 1 μM” value in assay [4] (1 μM compound, 1 µM) worked out at 93%. The inhibition at 3 µM in assay [4] (3 μM compound) came to 127%. Also, the “% Inhibition (Example 10) @ 3 μM” value in assay [4] (3 μM compound, 3 µM) worked out at 125%. Moreover, the Ki in assay [3] is 0.12 µM and 0.31 µM. Moreover, the IC50 in assay [5] is 420 nM.

Usually IC50 stands for the point on the concentration scale where inhibition reaches its midpoint. For orientation: Ki means the equilibrium dissociation constant of an inhibitor or competing ligand from its target. Higher therefore signals a looser hold on the target. Broadly, the inhibition is the relative decrease from the control value, in per cent.
